Measured values: PubChem BioAssay AID248 (DTP/NCI, 2004)
Toxic doses and inconclusive results are not listed. Cut-off read from the data, not from the text of the source: active = T/C of 150% or more; inactive = T/C below 125%.

System: L1210 leukemia ip in BDF1 mice, survival T/C
Experiment: NCI In Vivo Anticancer Drug Screen. Data for tumor model L1210 Leukemia (intraperitoneal) in B6D2F1 (BDF1) mice
Details: endpoint: mean survival time, higher = longer survival
Method in brief: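 Value reflects the ratio of survival in compound-treated mice to survival in vehicle-treated controls, with both groups carrying the same transplanted tumor.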

[1] = dose: 100.0 mg/kg/injection, schedule: Q01DX001 (ip), vehicle: saline
[2] = dose: 200.0 mg/kg/injection, schedule: Q01DX001 (ip), vehicle: saline
[3] = dose: 400.0 mg/kg/injection, schedule: Q01DX001 (ip), vehicle: saline
[4] = dose: 100.0 mg/kg/injection, schedule: Q01DX009 (ip), vehicle: saline with Tween-80
[5] = dose: 200.0 mg/kg/injection, schedule: Q01DX009 (ip), vehicle: saline with Tween-80
[6] = dose: 400.0 mg/kg/injection, schedule: Q01DX009 (ip), vehicle: saline with Tween-80
[7] = dose: 100.0 mg/kg/injection, schedule: Q04DX002 (ip), vehicle: Klucel (hydroxypropylcellulose) (HPC)
[8] = dose: 200.0 mg/kg/injection, schedule: Q04DX002 (ip), vehicle: Klucel (hydroxypropylcellulose) (HPC)
[9] = dose: 400.0 mg/kg/injection, schedule: Q04DX002 (ip), vehicle: Klucel (hydroxypropylcellulose) (HPC)
[10] = dose: 100.0 mg/kg/injection, schedule: Q01DX001 (ip), vehicle: other
[11] = dose: 200.0 mg/kg/injection, schedule: Q01DX001 (ip), vehicle: other
[12] = dose: 400.0 mg/kg/injection, schedule: Q01DX001 (ip), vehicle: other
[13] = dose: 25.0 mg/kg/injection, schedule: Q04DX003 (ip), vehicle: Klucel (hydroxypropylcellulose) (HPC)
[14] = dose: 100.0 mg/kg/injection, schedule: Q04DX003 (ip), vehicle: Klucel (hydroxypropylcellulose) (HPC)
[15] = dose: 200.0 mg/kg/injection, schedule: Q04DX003 (ip), vehicle: Klucel (hydroxypropylcellulose) (HPC)
[16] = dose: 400.0 mg/kg/injection, schedule: Q04DX003 (ip), vehicle: Klucel (hydroxypropylcellulose) (HPC)

Measured: T/C

CCC(CC)=NNc1ccc([N+](=O)[O-])cc1[N+](=O)[O-]
inactive: [1] 95 % of control | [2] 97 % of control | [3] 97 % of control

Oc1ccc(C2=CSC3=NCCN23)cc1
inactive: dose: 5.0 mg/kg/injection, schedule: Q01DX001 (ip), vehicle: saline 94 % of control | dose: 10.0 mg/kg/injection, schedule: Q01DX001 (ip), vehicle: saline 93 % of control | dose: 20.0 mg/kg/injection, schedule: Q01DX001 (ip), vehicle: saline 93 % of control | dose: 40.0 mg/kg/injection, schedule: Q01DX001 (ip), vehicle: saline 96 % of control | dose: 80.0 mg/kg/injection, schedule: Q01DX001 (ip), vehicle: saline 104 % of control

Nc1nc(Br)cs1
inactive: dose: 100.0 mg/kg/injection, schedule: Q04DX003 (ip), vehicle: saline 102 % of control | dose: 200.0 mg/kg/injection, schedule: Q04DX003 (ip), vehicle: saline 102 % of control

O=C1OC(=O)c2ccc([N+](=O)[O-])c3c([N+](=O)[O-])ccc1c23
inactive: [4] 88 % of control | [5] 95 % of control | [6] 91 % of control

CCOc1ccc(/C=N/NC(=O)c2ccccc2N)cc1OC
inactive: [7] 97 % of control | [8] 102 % of control | [9] 105 % of control

N#CSCc1c(Cl)c(Cl)c(CSC#N)c(Cl)c1Cl
inactive: dose: 75.0 mg/kg/injection, schedule: Q01DX009 (ip), vehicle: saline 96 % of control | dose: 150.0 mg/kg/injection, schedule: Q01DX009 (ip), vehicle: saline 94 % of control | dose: 300.0 mg/kg/injection, schedule: Q01DX009 (ip), vehicle: saline 93 % of control

COc1cc2ccc(C(N)=O)cc2cc1OC
inactive: [10] 98 % of control | [4] 92 % of control | dose: 100.0 mg/kg/injection, schedule: Q04DX003 (ip), vehicle: other 96 % of control | [11] 102 % of control | [5] 95 % of control | dose: 200.0 mg/kg/injection, schedule: Q04DX003 (ip), vehicle: other 103 % of control | [12] 100 % of control | [6] 98 % of control | dose: 400.0 mg/kg/injection, schedule: Q04DX003 (ip), vehicle: other 103 % of control

O=[N+]([O-])c1ccccc1N1N=NC2CC/C(=C\c3ccc(Cl)cc3)C21N1CCOCC1 (stereo not drawn)
inactive: dose: 100.0 mg/kg/injection, schedule: Q04DX002 (ip), vehicle: saline 108 % of control | dose: 200.0 mg/kg/injection, schedule: Q04DX002 (ip), vehicle: saline 89 % of control | dose: 400.0 mg/kg/injection, schedule: Q04DX002 (ip), vehicle: saline 92 % of control

CCOC(=O)C(Cc1ccccc1)C(=O)OCC
inactive: dose: 100.0 mg/kg/injection, schedule: Q04DX003 (ip), vehicle: saline with Tween-80 96 % of control | dose: 200.0 mg/kg/injection, schedule: Q04DX003 (ip), vehicle: saline with Tween-80 97 % of control | dose: 400.0 mg/kg/injection, schedule: Q04DX003 (ip), vehicle: saline with Tween-80 96 % of control

O=S(=O)(NC1CCc2ccccc21)c1ccccc1 (stereo not drawn)
inactive: [4] 95 % of control | [5] 90 % of control

CC(=O)CC(=O)C(F)(F)F.CC(=O)CC(=O)C(F)(F)F.[O]=[V]
inactive: [13] 100 % of control | dose: 50.0 mg/kg/injection, schedule: Q04DX003 (ip), vehicle: Klucel (hydroxypropylcellulose) (HPC) 107 % of control | [14] 96 % of control

O=C(NS(=O)(=O)c1ccc(Cl)cc1)OCCCl
inactive: [14] 96 % of control | [15] 95 % of control | [16] 98 % of control

O=C(C1C(c2ccccc2)N1Cc1ccccc1)C1C(c2ccccc2)N1Cc1ccccc1 (stereo not drawn)
inactive: dose: 75.0 mg/kg/injection, schedule: Q01DX001 (ip), vehicle: Klucel (hydroxypropylcellulose) (HPC) 101 % of control | dose: 150.0 mg/kg/injection, schedule: Q01DX001 (ip), vehicle: Klucel (hydroxypropylcellulose) (HPC) 88 % of control | dose: 300.0 mg/kg/injection, schedule: Q01DX001 (ip), vehicle: Klucel (hydroxypropylcellulose) (HPC) 93 % of control

CC1(C)N=C(N)N=C(N)N1c1cccc(OCCCOc2ccc(NC(=O)CBr)cc2)c1
inactive: dose: 45.0 mg/kg/injection, schedule: Q01DX009 (ip), vehicle: saline 104 % of control | dose: 67.0 mg/kg/injection, schedule: Q01DX009 (ip), vehicle: saline 104 % of control | [1] 110 % of control | dose: 100.0 mg/kg/injection, schedule: Q01DX009 (ip), vehicle: saline 102 % of control | [2] 97 % of control

NC(=O)N/N=C(/Cl)C(=O)NNC(N)=O
inactive: dose: 100.0 mg/kg/injection, schedule: Q04DX002 (ip), vehicle: saline with Tween-80 89 % of control | dose: 200.0 mg/kg/injection, schedule: Q04DX002 (ip), vehicle: saline with Tween-80 89 % of control | dose: 400.0 mg/kg/injection, schedule: Q04DX002 (ip), vehicle: saline with Tween-80 96 % of control

Clc1ccccc1/C=N/Nc1nnc(N/N=C/c2ccccc2Cl)c2ccccc12
inactive: dose: 50.0 mg/kg/injection, schedule: Q01DX001 (ip), vehicle: carboxymethylcellulose (CMC) 95 % of control | dose: 100.0 mg/kg/injection, schedule: Q01DX001 (ip), vehicle: carboxymethylcellulose (CMC) 89 % of control | dose: 200.0 mg/kg/injection, schedule: Q01DX001 (ip), vehicle: carboxymethylcellulose (CMC) 89 % of control | dose: 400.0 mg/kg/injection, schedule: Q01DX001 (ip), vehicle: carboxymethylcellulose (CMC) 89 % of control

CONC(=O)NC(=O)C1(c2ccccc2)CCCCC1
inactive: dose: 25.0 mg/kg/injection, schedule: Q01DX Z (ip), vehicle: carboxymethylcellulose (CMC) 96 % of control | dose: 50.0 mg/kg/injection, schedule: Q01DX Z (ip), vehicle: carboxymethylcellulose (CMC) 95 % of control | [1] 86 % of control | dose: 100.0 mg/kg/injection, schedule: Q01DX Z (ip), vehicle: carboxymethylcellulose (CMC) 95 % of control | [2] 100 % of control | dose: 200.0 mg/kg/injection, schedule: Q01DX Z (ip), vehicle: carboxymethylcellulose (CMC) 102 % of control | dose: 200.0 mg/kg/injection, schedule: Q01DX Z (ip), vehicle: methylcellulose (MC) 119 % of control | [3] 102 % of control | dose: 400.0 mg/kg/injection, schedule: Q01DX Z (ip), vehicle: carboxymethylcellulose (CMC) 96 % of control | dose: 400.0 mg/kg/injection, schedule: Q01DX Z (ip), vehicle: methylcellulose (MC) 112 % of control

CNC(=O)c1ccccc1-c1ccccc1C(=O)NC
inactive: [10] 102 % of control | [11] 102 % of control | [12] 98 % of control

O=C(O)c1c[nH]c2c(ccc3ccccc32)c1=O
inactive: [7] 103 % of control | [8] 122 % of control | [9] 92 % of control

CC(=O)Nc1ccc(N=Nc2ccccc2)cc1F
inactive: dose: 100.0 mg/kg/injection, schedule: Q01DX009 (ip), vehicle: Klucel (hydroxypropylcellulose) (HPC) 94 % of control | [14] 98 % of control | dose: 200.0 mg/kg/injection, schedule: Q01DX009 (ip), vehicle: Klucel (hydroxypropylcellulose) (HPC) 97 % of control | [15] 94 % of control | dose: 400.0 mg/kg/injection, schedule: Q01DX009 (ip), vehicle: Klucel (hydroxypropylcellulose) (HPC) 97 % of control | [16] 91 % of control

CC(=O)OC1CC(n2cc(C)c(=O)[nH]c2=O)OC1CO (stereo not drawn)
inactive: dose: 100.0 mg/kg/injection, schedule: Q01DX005 (ip), vehicle: saline 112 % of control | dose: 200.0 mg/kg/injection, schedule: Q01DX005 (ip), vehicle: saline 109 % of control

O=C1NC23CC=CCC12CCCCCC3 (stereo not drawn)
inactive: dose: 100.0 mg/kg/injection, schedule: Q04DX002 (ip), vehicle: other 93 % of control | dose: 200.0 mg/kg/injection, schedule: Q04DX002 (ip), vehicle: other 90 % of control | dose: 400.0 mg/kg/injection, schedule: Q04DX002 (ip), vehicle: other 86 % of control

COc1ccc(OC)c2[nH]c(-c3ccc(Cl)cc3)cc12
inactive: [7] 99 % of control | [8] 102 % of control | [9] 89 % of control

O/N=C1\C(Cl)C2CC1C1C=CCC12 (stereo not drawn)
inactive: [13] 91 % of control
